According to patent publication US10752591B2, “18-20 member bi-polycyclic compounds” (Haro Pharmaceutical Inc., priority 2014, dated 2020):

Experiments:
mouse pharmacokinetics = format: in vivo; conditions: mice
Protocol: Mouse pharmacokinetics studies were conducted in female athymic nude or male C57/B6 mice (n=3). Due to its very poor aqueous solubility, compound 17 was formulated in 66% PEG-400/33% H2O-1% Tween-80. In contrast compound 13 was formulated in 66% PEG-400/33% H2O. Compounds were administered PO (30 mg/kg) or IV (5 mg/kg), and plasma concentrations were measured by UV/HPLC.

[1] = biological target: T1, purified recombinant human HDAC-8 (Homo sapiens, UniProt Q9BY41); experiment: HDAC-8 enzymatic inhibition (Boc-Lys(Tfa)-AMC / HDAC-Glo I/II); format: biochemical; conditions: relative to compound 17
T1 construct: purchased Cayman Chem 10009465 (AMC assay (so in the source)); 19380 (HDAC-Glo assay)
T1 sequence (Q9BY41 1-377): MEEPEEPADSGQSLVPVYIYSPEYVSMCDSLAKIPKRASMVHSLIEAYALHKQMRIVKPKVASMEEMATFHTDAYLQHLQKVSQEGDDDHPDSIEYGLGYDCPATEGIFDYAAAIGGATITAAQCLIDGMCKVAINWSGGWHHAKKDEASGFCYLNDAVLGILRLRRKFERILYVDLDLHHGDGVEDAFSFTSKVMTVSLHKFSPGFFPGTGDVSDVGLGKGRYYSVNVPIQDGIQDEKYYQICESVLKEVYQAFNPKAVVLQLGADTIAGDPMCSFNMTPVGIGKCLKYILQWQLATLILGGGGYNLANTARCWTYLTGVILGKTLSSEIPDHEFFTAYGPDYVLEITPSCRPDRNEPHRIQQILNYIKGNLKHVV
Protocol: (§1) The effect of compounds on the enzymatic activity of purified recombinant human HDAC-1, -2, -3, -6, and -8 activity and of purified rat liver HDAC was examined by measuring the deacetylation of synthetic peptides in various preparations of HDACs. HDAC assays were performed using a two-step enzymatic reaction where enzyme activity is correlated to the release of […] (AMC). AMC fluorescence is measured in a fluorescent plate reading using λex380 nm and λen440 nm.
HDAC-8, HDAC-9, HDAC-10 and HDAC-11 were assayed using HDAC-Glo™ I/II Kit (Promega Corporation G6421) in a total volume of 110 μl following the manufacturer's instructions.
(§2) The reaction was allowed to proceed for 40 min at 37° C., after which developer solution (0.5% trypsin, 10 μM trichostatin A (TSA)) was added to obtain a final concentration of 0.1% trypsin, 2 μM TSA. After 30 minutes at room temperature, the amount of free fluorogenic AMC was measured as described above.

[2] = biological target: T2, purified recombinant human HDAC-6 (Homo sapiens, UniProt Q9UBN7); experiment: HDAC-6 enzymatic inhibition (AMC fluorogenic peptide deacetylation); format: biochemical; conditions: relative to compound 17
T2 construct: purchased Cayman Chem 10009465
T2 sequence (Q9UBN7 1-1215): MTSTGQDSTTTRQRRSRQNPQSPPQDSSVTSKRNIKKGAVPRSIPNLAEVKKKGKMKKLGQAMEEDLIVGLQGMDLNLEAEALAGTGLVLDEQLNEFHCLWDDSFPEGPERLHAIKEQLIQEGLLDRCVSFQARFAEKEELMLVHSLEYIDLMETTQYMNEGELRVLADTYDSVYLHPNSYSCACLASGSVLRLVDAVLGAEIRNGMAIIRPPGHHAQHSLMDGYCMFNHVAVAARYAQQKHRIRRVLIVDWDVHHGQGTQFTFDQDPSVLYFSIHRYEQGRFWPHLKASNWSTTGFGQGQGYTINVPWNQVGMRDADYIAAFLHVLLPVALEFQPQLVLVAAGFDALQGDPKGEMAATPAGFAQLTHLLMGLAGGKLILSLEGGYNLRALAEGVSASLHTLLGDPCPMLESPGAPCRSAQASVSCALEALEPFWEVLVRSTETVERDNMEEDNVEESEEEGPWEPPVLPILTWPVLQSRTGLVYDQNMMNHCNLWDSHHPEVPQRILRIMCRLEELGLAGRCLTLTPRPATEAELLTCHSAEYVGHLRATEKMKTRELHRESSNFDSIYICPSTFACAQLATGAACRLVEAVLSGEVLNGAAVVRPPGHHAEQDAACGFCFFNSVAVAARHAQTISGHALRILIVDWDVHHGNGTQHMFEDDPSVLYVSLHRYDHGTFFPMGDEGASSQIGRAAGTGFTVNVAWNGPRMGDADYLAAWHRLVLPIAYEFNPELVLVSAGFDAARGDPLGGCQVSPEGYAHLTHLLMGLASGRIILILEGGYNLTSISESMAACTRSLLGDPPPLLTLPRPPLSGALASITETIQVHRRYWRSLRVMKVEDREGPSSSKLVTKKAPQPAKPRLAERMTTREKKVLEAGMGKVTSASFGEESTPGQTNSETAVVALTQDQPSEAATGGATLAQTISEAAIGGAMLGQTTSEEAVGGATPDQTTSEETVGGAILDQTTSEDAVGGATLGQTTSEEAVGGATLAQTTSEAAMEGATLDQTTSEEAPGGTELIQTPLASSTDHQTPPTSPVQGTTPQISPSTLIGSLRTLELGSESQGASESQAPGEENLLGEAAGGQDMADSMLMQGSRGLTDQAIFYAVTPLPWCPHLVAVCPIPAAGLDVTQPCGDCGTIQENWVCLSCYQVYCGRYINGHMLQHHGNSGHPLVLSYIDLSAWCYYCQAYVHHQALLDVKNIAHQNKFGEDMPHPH
Protocol: as §1, §2

aqueous solubility = format: physicochemical
Lys382 acetylated p53 = experiment: intracellular acetylation of p53 in IMR-32 cells (western blot); format: cell-based; conditions: 1 μM or 5 μM, 16 hours
Protocol: The effect of certain compounds on intracellular acetylation of target proteins was tested in high risk neuroblastoma cells, BE-2C and IMR-32 cells.
IMR32 cells were grown to confluence in phenol-red-free RPMI media supplemented with 10% es grade FBS and 2.5 mM Ala-Glu. Cells were treated with DMSO or 1 μM or 5 μM compound 13 in DMSO for 16 hours. Protein extracts were prepared in RIPA buffer in the presence of protease and phosphatase inhibitors. Proteins were separated on a 4-20% gel by PAGE and transferred to a nitrocellulose membrane.
Beta actin, total and Lys382 acetylated p53, and Lys40 acetylated alpha, and total tubulin were detected using antibodies (Cell Signaling #8557, #2524 #2525, #12152 and #2144 respectively) using manufacturer recommended conditions.

[3] = biological target: purified recombinant human HDAC-1 (Homo sapiens, UniProt Q13547); experiment: HDAC-1 enzymatic inhibition (AMC fluorogenic peptide deacetylation); format: biochemical; conditions: up to
Protocol: as §1, §2

[4] = PO (30 mg/kg) or IV (5 mg/kg), route per parameter not stated

Sequence of purified recombinant human HDAC-1 (Q13547 whole entry): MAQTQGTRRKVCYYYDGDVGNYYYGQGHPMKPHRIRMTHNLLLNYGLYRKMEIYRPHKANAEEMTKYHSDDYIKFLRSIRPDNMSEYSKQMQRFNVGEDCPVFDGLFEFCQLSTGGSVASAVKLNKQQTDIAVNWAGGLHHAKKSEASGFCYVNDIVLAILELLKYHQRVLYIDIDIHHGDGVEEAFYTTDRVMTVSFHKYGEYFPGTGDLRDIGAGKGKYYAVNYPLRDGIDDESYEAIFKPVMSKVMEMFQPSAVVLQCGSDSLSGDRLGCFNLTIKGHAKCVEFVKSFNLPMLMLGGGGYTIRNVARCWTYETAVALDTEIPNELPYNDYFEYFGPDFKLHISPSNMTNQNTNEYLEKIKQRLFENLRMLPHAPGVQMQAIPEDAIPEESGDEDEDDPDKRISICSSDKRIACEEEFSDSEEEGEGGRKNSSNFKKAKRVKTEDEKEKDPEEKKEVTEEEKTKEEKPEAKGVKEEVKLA

For `CC1(C)CCC(C)(C)c2cc(-c3cc4cc(C(=O)NO)ccc4[nH]3)ccc21` [Compound 13], the “T max compared with compound 17” value (mouse pharmacokinetics) was “markedly reduced”, the “oral bioavailability, AUC, Cmax compared with compound 17” value (mouse pharmacokinetics) was “markedly higher” and the “AUC0-∞” value (mouse pharmacokinetics; [4]) was 42.00 µM·h. It also gave a CLp (mouse pharmacokinetics; [4]) of 0.24 mL/min/kg, a Cmax (mouse pharmacokinetics; [4]) of 5.54 µM and an MRT (mouse pharmacokinetics; [4]) of 6.9 h. The Tmax (mouse pharmacokinetics; [4]) was 1.4 h, the “Vd,ss” value (mouse pharmacokinetics; [4]) was 8 L/kg and the “times/fold more potent than compound 17 in HDAC-8 inhibition” value [1] was “at least 13”. The “fold more potent than compound 17 in HDAC-6 inhibition” value [2] was “at least 50”, the aqueous solubility (aqueous solubility) was “improved” and the “lysine acetylated p53 level” value (Lys382 acetylated p53) was “pronounced accumulation of lysine acetylated p53”. The “maximal inhibition of HDAC-1 activity” value [3] was ~50%.
